# Measured values reported in ChEMBL document CHEMBL2218064, “Structure-activity relationship data for chemical series of antagonists of the P2X7 receptor (Supplementary Bioactivity Data for publication CHEMBL1157114)”.
# Target: T1, P2X purinoceptor 7 (Homo sapiens, UniProt Q99572)
# T1 sequence (Q99572 whole entry): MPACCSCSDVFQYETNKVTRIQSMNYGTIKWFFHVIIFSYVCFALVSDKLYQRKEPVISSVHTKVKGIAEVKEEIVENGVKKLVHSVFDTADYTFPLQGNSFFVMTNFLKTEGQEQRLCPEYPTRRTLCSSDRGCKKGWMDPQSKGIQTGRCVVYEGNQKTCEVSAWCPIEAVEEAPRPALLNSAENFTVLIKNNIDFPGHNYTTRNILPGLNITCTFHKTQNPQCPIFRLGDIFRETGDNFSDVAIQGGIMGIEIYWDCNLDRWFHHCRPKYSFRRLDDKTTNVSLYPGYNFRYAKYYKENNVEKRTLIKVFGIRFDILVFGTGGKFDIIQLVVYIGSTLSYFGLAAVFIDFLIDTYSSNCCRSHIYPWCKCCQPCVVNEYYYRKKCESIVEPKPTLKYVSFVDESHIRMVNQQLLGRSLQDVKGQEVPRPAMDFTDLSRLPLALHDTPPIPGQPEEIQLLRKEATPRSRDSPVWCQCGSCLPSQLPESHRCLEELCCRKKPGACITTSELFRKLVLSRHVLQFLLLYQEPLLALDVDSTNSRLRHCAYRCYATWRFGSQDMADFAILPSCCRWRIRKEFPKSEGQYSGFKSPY
# Assay: SUPPLEMENTARY: Inhibition of human P2X7 receptor assessed as inhibition of ethidium bromide accumulation. Same assay as CHEMBL1103860
row,IC50,SMILES
1,63.1 nM,Cc1cccc(C)c1CNC(=O)Cc1c(C)nn(-c2ccccc2)c1C
2,200 nM,CN1C(=O)CCC1(C)C(=O)NCc1ccc(Cl)cc1Cl (stereo not given)
3,316 nM,CCN1C(=O)CC[C@@H]1C(=O)NCc1ccc(Cl)c(C(F)(F)F)c1
4,501 nM,CCN1C(=O)CC[C@@H]1C(=O)NCc1c(C)cccc1Cl
5,25.1 nM,Cc1cc(Cl)ccc1CNC(=O)[C@@H]1CCC(=O)N1C
6,100 nM,CN1C(=O)CC[C@H]1C(=O)NCc1ccc(F)cc1C(F)(F)F
7,15.8 nM,CN1C(=O)CC[C@H]1C(=O)NCc1cccc(Cl)c1Cl
8,126 nM,CN1C(=O)CC[C@H]1C(=O)NCc1c(Cl)cccc1Cl
9,251 nM,Cc1c(CC(=O)NCc2ccc(F)cc2Cl)cnn1-c1ccc(F)cc1
10,501 nM,Cc1nn(-c2ncccc2C(F)(F)F)c(C)c1CC(=O)NCc1ccc(F)cc1Cl
11,63.1 nM,Cc1nn(C2CCN(Cc3ccccc3)CC2)c(C)c1CC(=O)NCc1ccc(F)cc1Cl
12,631 nM,Cc1nn(C(C)C)c(C)c1CC(=O)NCc1ccc(F)cc1Cl
13,631 nM,Cc1nn(CC2CCCCC2)c(C)c1CC(=O)NCc1ccc(F)cc1Cl
14,200 nM,CCn1nc(C)c(CC(=O)NCc2ccc(F)cc2Cl)c1C
15,100 nM,Cc1nn(CC(C)(C)C)c(C)c1CC(=O)NCc1ccc(F)cc1Cl
16,251 nM,Cc1nn(Cc2ccccc2N(C)C)c(C)c1CC(=O)NCc1ccc(F)cc1Cl
17,126 nM,Cc1nn(C2CCN(C)CC2)c(C)c1CC(=O)NCc1ccc(F)cc1Cl
18,316 nM,Cc1nn(CC(F)(F)F)c(C)c1CC(=O)NCc1ccc(F)cc1Cl
19,398 nM,Cc1nn(Cc2nc3ccccc3s2)c(C)c1CC(=O)NCc1ccc(F)cc1Cl
20,15.8 nM,Cc1nn(-c2ccc(C(=O)NCc3ccccn3)cc2)c(C)c1CC(=O)NCc1ccc(F)cc1Cl
21,251 nM,Cc1nn(CC(C)C)c(C)c1CC(=O)NCc1ccc(F)cc1Cl
22,501 nM,Cc1nn(C2CCCC2)c(C)c1CC(=O)NCc1ccc(F)cc1Cl
23,1260 nM,Cc1nn(C2CCOCC2)c(C)c1CC(=O)NCc1ccc(F)cc1Cl
24,1260 nM,O=C(Cc1cnn(-c2ccc(F)cc2)c1C(F)(F)F)NCc1ccc(F)cc1Cl
25,631 nM,Cc1ccc(-n2nc(C)c(CC(=O)NCc3ccc(F)cc3Cl)c2C)nn1
26,1260 nM,Cc1nn(CC(=O)O)c(C)c1CC(=O)NCc1ccc(F)cc1Cl
27,501 nM,CCN(CC)C(=O)Cn1nc(C)c(CC(=O)NCc2ccc(F)cc2Cl)c1C

row,IC50,SMILES
1,316 nM,Cc1nn(Cc2ccncc2)c(C)c1CC(=O)NCc1ccc(F)cc1Cl
2,200 nM,Cc1cc(-n2nc(C)c(CC(=O)NCc3ccc(F)cc3Cl)c2C)nc(C)n1
3,398 nM,C=C(C)CN1C(=O)CC[C@H]1C(=O)NCc1ccc(F)cc1Cl
4,251 nM,Cc1ccc(-n2nc(C)c(CC(=O)NCc3ccc(F)cc3Cl)c2C)cn1
5,398 nM,Cc1nn(Cc2ccccn2)c(C)c1CC(=O)NCc1ccc(F)cc1Cl
6,398 nM,Cc1nn(C(C)(C)C)c(C)c1CC(=O)NCc1ccc(F)cc1Cl
7,251 nM,Cc1nn(CCN2CCOCC2)c(C)c1CC(=O)NCc1ccc(F)cc1Cl
8,398 nM,Cc1ccc(-n2nc(C)c(CC(=O)NCc3ccc(F)cc3Cl)c2C)c(C)n1
9,398 nM,Cc1ccncc1-n1nc(C)c(CC(=O)NCc2ccc(F)cc2Cl)c1C
10,316 nM,Cc1cc(-n2nc(C)c(CC(=O)NCc3ccc(F)cc3Cl)c2C)ccn1
11,200 nM,CCN(CC)CCn1nc(C)c(CC(=O)NCc2ccc(F)cc2Cl)c1C
12,50.1 nM,Cc1nn(CCN2CCCCC2)c(C)c1CC(=O)NCc1ccc(F)cc1Cl
13,126 nM,Cc1nn(CCN2CCCC2)c(C)c1CC(=O)NCc1ccc(F)cc1Cl
14,631 nM,Cc1ccccc1-n1cc(CC(=O)NCc2ccc(F)cc2Cl)cn1
15,251 nM,CCc1ccccc1-n1cc(CC(=O)NCc2ccc(F)cc2Cl)cn1
16,31.6 nM,Cc1nn(-c2ccccc2)c(C)c1CC(=O)NCc1cccc(Cl)c1C
17,251 nM,Cc1nn(-c2ccccc2)c(C)c1CC(=O)NCc1ccc(F)c(F)c1
18,63.1 nM,Cc1nn(-c2ccccc2)c(C)c1CC(=O)NCc1ccc(F)c(F)c1F
19,794 nM,Cc1ccc(C)c(CNC(=O)Cc2c(C)nn(-c3ccccc3)c2C)c1
20,126 nM,Cc1ccc(Cl)cc1CNC(=O)Cc1c(C)nn(-c2ccccc2)c1C
21,39.8 nM,Cc1cccc(Cl)c1CNC(=O)Cc1c(C)nn(-c2ccccc2)c1C
22,39.8 nM,Cc1nn(CCNCC(C)C)c(C)c1CC(=O)NCc1ccc(F)cc1Cl
23,79.4 nM,Cc1ncccc1-n1nc(C)c(CC(=O)NCc2ccc(F)cc2Cl)c1C
24,316 nM,Cc1cncc(-n2nc(C)c(CC(=O)NCc3ccc(F)cc3Cl)c2C)c1
25,100 nM,Cc1nn(CCNCCO)c(C)c1CC(=O)NCc1ccc(F)cc1Cl
26,200 nM,Cc1nn(CCN(C)CCO)c(C)c1CC(=O)NCc1ccc(F)cc1Cl
27,126 nM,COCCNCCn1nc(C)c(CC(=O)NCc2ccc(F)cc2Cl)c1C

row,IC50,SMILES
1,63.1 nM,Cc1nn(CCO)c(C)c1CC(=O)NCc1cccc(Cl)c1C
2,158 nM,Cc1nn(CCN)c(C)c1CC(=O)NCc1ccc(F)cc1Cl
3,398 nM,COCCn1nc(C)c(CC(=O)NCc2ccc(F)cc2Cl)c1C
4,631 nM,Cc1nn(-c2ccccc2)c(C)c1CC(=O)NCc1cc(Cl)ccc1F
5,126 nM,Cc1nn(CCN2CCOCC2)c(C)c1CC(=O)NCc1cccc(Cl)c1C
6,316 nM,Cc1nn(CC(C)(C)O)c(C)c1CC(=O)NCc1ccc(F)cc1Cl
7,794 nM,Cc1nn(CC(C)(C)O)c(C)c1CC(=O)NCc1ccc(F)c(F)c1F
8,158 nM,Cc1nn(CC(C)(C)O)c(C)c1CC(=O)NCc1cccc(Cl)c1C
9,200 nM,Cc1cccc(Cl)c1CNC(=O)Cc1c(C)nn(CC(C)(C)O)c1C
10,1260 nM,CCOc1cccc(-n2cc(CC(=O)NCc3ccc(F)cc3Cl)cn2)n1
11,79.4 nM,Cc1nn(-c2ncccn2)c(C)c1CC(=O)NCc1ccc(F)c(F)c1F
12,200 nM,O=C(Cc1cnn(CCO)c1C(F)(F)F)NCc1ccc(F)cc1Cl
13,398 nM,O=C(Cc1cn(CCO)nc1C(F)(F)F)NCc1ccc(F)cc1Cl
14,631 nM,O=C(Cc1cn(CCNCCO)nc1C(F)(F)F)NCc1ccc(F)cc1Cl
15,794 nM,O=C(Cc1cn(CCNC2CCOCC2)nc1C(F)(F)F)NCc1ccc(F)cc1Cl
16,398 nM,O=C(Cc1cnn(-c2ccc(F)cc2)c1Br)NCc1ccc(F)cc1Cl
17,251 nM,COc1ccc(-n2nc(C)c(CC(=O)NCc3ccc(F)cc3Cl)c2C)cn1
18,398 nM,COc1cncc(-n2nc(C)c(CC(=O)NCc3ccc(F)cc3Cl)c2C)c1
19,251 nM,COc1ncccc1-n1nc(C)c(CC(=O)NCc2ccc(F)cc2Cl)c1C
20,1260 nM,CN(C)CCn1ncc(CC(=O)NCc2ccc(F)cc2Cl)c1C(F)(F)F
21,1260 nM,O=C(Cc1cnn(CCNC2CCOCC2)c1C(F)(F)F)NCc1ccc(F)cc1Cl
22,794 nM,O=C(Cc1cnn(CCN2CCCCC2)c1C(F)(F)F)NCc1ccc(F)cc1Cl
23,794 nM,COCCNCCn1ncc(CC(=O)NCc2ccc(F)cc2Cl)c1C(F)(F)F
24,158 nM,CCN1C(=O)CC[C@H]1C(=O)NCc1ccc(F)c(F)c1F
25,251 nM,CCN1C(=O)CC[C@H]1C(=O)NCc1ccccc1Br
26,1000 nM,CCN1C(=O)CC[C@H]1C(=O)NCc1c(F)cccc1Cl
27,25.1 nM,CCN1C(=O)CC[C@H]1C(=O)NCc1ccc(Cl)cc1C

row,IC50,SMILES
1,50.1 nM,CCN1C(=O)CC[C@H]1C(=O)NCc1c(C)cc(C)cc1C
2,794 nM,CCN1C(=O)CC[C@H]1C(=O)NCc1c(F)ccc(F)c1Cl
3,12.6 nM,CN1C(=O)CC[C@H]1C(=O)NCc1ccc(Cl)cc1Cl
4,100 nM,CCN1C(=O)[C@H](Cc2ccccc2)C[C@H]1C(=O)NCc1ccc(F)cc1Cl
5,251 nM,CCN1C(=O)CC[C@H]1C(=O)NCc1ccc(Cl)c(Cl)c1
6,39.8 nM,CCN1C(=O)CC[C@H]1C(=O)NCc1ccc(F)cc1C(F)(F)F
7,158 nM,CCN1C(=O)CC[C@H]1C(=O)NCc1ccc(C)cc1C
8,100 nM,CCN1C(=O)CC[C@H]1C(=O)NCc1c(C)cccc1Cl
9,158 nM,CCN1C(=O)CC[C@H]1C(=O)NCc1c(F)ccc(C)c1Cl
10,794 nM,CCN1C(=O)CC[C@H]1C(=O)NCc1c(Cl)ccc(C)c1F
11,15.8 nM,CCN1C(=O)CC[C@H]1C(=O)NCc1cccc(Cl)c1C
12,398 nM,CCN1C(=O)CC[C@H]1C(=O)NCc1cccc(F)c1F
13,100 nM,CCN1C(=O)CC[C@H]1C(=O)NCc1c(Cl)cccc1Cl
14,79.4 nM,CCN1C(=O)CC[C@H]1C(=O)NCc1ccc(F)c(C(F)(F)F)c1
15,79.4 nM,CCN1C(=O)CC[C@H]1C(=O)NCc1ccc(Cl)c(C(F)(F)F)c1
16,200 nM,CCN1C(=O)CC[C@H]1C(=O)NCc1ccc(C(F)(F)F)cc1
17,39.8 nM,CCN1C(=O)CC[C@H]1C(=O)NCc1ccc(Br)cc1F
18,794 nM,CCN1C(=O)CC[C@H]1C(=O)NCc1ccccc1C
19,7.94 nM,CCN1C(=O)CC[C@H]1C(=O)NCc1ccc(F)c(F)c1Cl
20,316 nM,CCN1C(=O)OC[C@@H]1C(=O)NCc1ccc(F)cc1Cl
21,100 nM,CCN1C(=O)OC[C@H]1C(=O)NCc1ccc(F)cc1Cl
22,100 nM,CC1(C(=O)NCc2ccc(Cl)cc2Cl)CCC(=O)N1C1CCC1 (stereo not given)
23,25.1 nM,CCN1C(=O)CC[C@H]1C(=O)NCc1cccc(C(F)(F)F)c1F
24,79.4 nM,CCN1C(=O)CC[C@H]1C(=O)NCc1cccc(Cl)c1F
